Results taken from patent publication US20250066322A1, “SUBSTITUTED HETEROCYCLIC COMPOUNDS” (BRISTOL-MYERS SQUIBB COMPANY, priority 2021, published 2025).
pIC50: −log10 of the molar value.

Each compound was assayed on IFNα-Induced STAT Phosphorylation (pSTAT5) (assay: IFNα-Induced STAT Phosphorylation in Human Whole Blood). Settings: 1 h incubation with compound, then 1000 U/mL recombinant human IFNα A/D for 15 min, pSTAT5 in CD3 positive population, read-out: Human Whole blood IFNa pSTAT5 IC50.
Assay type: cell-based
Experimental: IFNα-Induced STAT Phosphorylation in Human Whole Blood
After an hour long incubation with compound, human whole blood (drawn with ACD-A as anticoagulant) was stimulated with 1000 U/mL recombinant human IFNα A/D (R&D Systems 11200-2) for 15 min. The stimulation was stopped by adding Fix/Lyse buffer (BD 558049). Cells were stained with a CD3 FITC antibody (BD 555916), washed, and permeabilized on ice using Perm III buffer (BD 558050). Cells were then stained with an Alexa-Fluor 647 pSTAT5 (pY694) antibody (BD 612599) for 60 min prior to analysis on the iQue Plus. The amount of pSTAT5 expression was quantitated by median fluorescence intensity after gating on the CD3 positive population.

pIC50 | SMILES
6.96 | [2H]C([2H])([2H])NC(=O)c1nnc(NC(=O)C2CC2C)cc1Nc1ncccc1S(=O)(=O)C(F)F (single isomer, unassigned) [Example 13a, 4-((3-((difluoromethyl)sulfonyl)pyridin-2-yl)amino)-N-(methyl-d3)-6-(2-methylcyclopropane-1-carboxamido)pyridazine-3-carboxamide]
8.00 | [2H]C([2H])([2H])NC(=O)c1nnc(NC(=O)C2CC2C)cc1Nc1ncccc1S(=O)(=O)C(F)F (single isomer, unassigned) [Example 13b, 4-((3-((difluoromethyl)sulfonyl)pyridin-2-yl)amino)-N-(methyl-d3)-6-(2-methylcyclopropane-1-carboxamido)pyridazine-3-carboxamide]
5.85 | CCC(=O)c1cnc(NC(=O)C2CC2C)cc1Nc1ncccc1S(=O)(=O)C(F)F (single isomer, unassigned) [Example 21a, N-(4-((3-((difluoromethyl)sulfonyl)pyridin-2-yl)amino)-5-propionylpyridin-2-yl)-2-methylcyclopropane-1-carboxamide]
7.30 | CCC(=O)c1cnc(NC(=O)C2CC2C)cc1Nc1ncccc1S(=O)(=O)C(F)F (single isomer, unassigned) [Example 21b, N-(4-((3-((difluoromethyl)sulfonyl)pyridin-2-yl)amino)-5-propionylpyridin-2-yl)-2-methylcyclopropane-1-carboxamide]

SMILES | pIC50
CCC(=O)c1cnc(NC(=O)[C@@H]2CC23CC3)cc1Nc1ncccc1S(=O)(=O)C(F)F [Example 17] | 6.02

Same assay, conditions: Homo sapiens, 1 h incubation with compound, then 1000 U/mL recombinant human IFNα A/D for 15 min, pSTAT5 in CD3 positive population, read-out: Human Whole blood IFNa pSTAT5 IC50

pIC50 | SMILES
7.52 | [2H]C([2H])([2H])NC(=O)c1nnc(NC(=O)C2CC2)cc1Nc1ncccc1S(=O)(=O)C(F)F [Example 4, 6-(cyclopropanecarboxamido)-4-((3-((difluoromethyl)sulfonyl)-pyridin-2-yl)amino)-N-(methyl-d3)pyridazine-3-carboxamide]
6.66 | CCC(=O)c1cnc(Nc2cccc(F)n2)cc1Nc1ncccc1S(=O)(=O)C(F)F [Example 22, 1-(4-((3-((difluoromethyl)sulfonyl)pyridin-2-yl)amino)-6-((6-fluoropyridin-2-yl)amino)pyridin-3-yl)propan-1-one]
6.01 | CCC(=O)c1cnc(NC(=O)N(C)C)cc1Nc1ncccc1S(=O)(=O)C(F)F [Example 16, 3-(4-((3-((difluoromethyl)sulfonyl)pyridin-2-yl)amino)-5-propionylpyridin-2-yl)-1,1-dimethylurea]
6.34 | CCC(=O)c1cnc(NC(=O)[C@H]2C[C@@H]2F)cc1Nc1ncccc1S(=O)(=O)C(F)F [Example 20, (1R,2S)-N-(4-((3-((difluoromethyl)sulfonyl)pyridin-2-yl)amino)-5-propionylpyridin-2-yl)-2-fluorocyclopropane-1-carboxamide]
6.60 | [2H]C([2H])([2H])NC(=O)c1nnc(NC(=O)OC)cc1Nc1ncccc1S(=O)(=O)C(F)F [Example 5, methyl (5-((3-((difluoromethyl)-sulfonyl)pyridin-2-yl)amino)-6-((methyl-d3)carbamoyl)-pyridazin-3-yl)carbamate]
6.82 | CCC(=O)c1cnc(NC(=O)C2CC2)cc1Nc1ncccc1S(=O)(=O)C(F)F [Example 15, N-(4-((3-((difluoromethyl)sulfonyl)pyridin-2-yl)amino)-5-propionylpyridin-2-yl)cyclopropanecarboxamide]
7.15 | [2H]C([2H])([2H])NC(=O)c1nnc(NC(=O)C2CC2)cc1Nc1ncccc1S(=O)(=O)C1CC1 [Example 1, 6-(cyclopropanecarboxamido)-4-((3-(cyclopropylsulfonyl)pyridin-2-yl)amino)-N-(methyl-d3) pyridazine-3-carboxamide]
6.68 | [2H]C([2H])([2H])NC(=O)c1nnc(NC(=O)N(C)C)cc1Nc1ncccc1S(=O)(=O)C(F)F [Example 6, 4-((3-((difluoromethyl)sulfonyl)pyridin-2-yl)amino)-6-(3,3-dimethylureido)-N-(methyl-d3)pyridazine-3-carboxamide]
6.17 | [2H]C([2H])([2H])NC(=O)c1nnc(NC(=O)OC)cc1Nc1ncccc1S(=O)(=O)C1CC1 [Example 2, methyl (5-((3-(cyclopropylsulfonyl)pyridin-2-yl)amino)-6-((methyl-d3)carbamoyl)pyridazin-3-yl)carbamate]
6.23 | CCC(=O)c1cnc(NC(=O)C2CC2)cc1Nc1ncccc1S(=O)(=O)C1CC1 [Example 3, N-(4-((3-(cyclopropylsulfonyl)pyridin-2-yl)amino)-5-propionylpyridin-2-yl)cyclopropanecarboxamide]
6.07 | CCC(=O)c1cnc(NC(=O)[C@H]2C[C@@H]2C)cc1Nc1ncccc1S(=O)(=O)C(F)F [Example 18, (1S,2S)-N-(4-((3-((difluoromethyl)sulfonyl)pyridin-2-yl)amino)-5-propionylpyridin-2-yl)-2-methylcyclopropane-1-carboxamide]
